Source: paper PMC7582705, “Structure-Based Discovery of Novel Chemical Classes of Autotaxin Inhibitors” (International Journal of Molecular Sciences, 2020)

Tests used:
Solubility (Table S1) = conditions: YES/NO
ATX [1] = target: T1, ATX (Homo sapiens, UniProt Q13822); assay: Amplex Red Lyso-phospholipase D assay, human ATX; type: biochemical; design: purchased Sino Biological; conditions: for inhibition at 30 µM: Table S2, at 30uM, read-out: %inhibition at 30uM
Experimental: All compounds proposed were assessed for their ATX inhibitory activity in vitro using the Amplex Red assay. The Amplex Red Lyso-phospholipase D assay is a fluorometry-based assay providing a sensitive method for measuring Lyso-phospholipase D (ATX) activity in vitro. In this enzyme-coupled assay, ATX activity is monitored indirectly using 10-acetyl-3,7-dihydrophenoxazine (Amplex Red reagent), a sensitive fluorogenic probe for H2O2. ATX initially cleaves the Lysophosphatidylcholine (LPC) substrate to yield choline and Lysophosphatidic acid (LPA), while choline gets subsequently oxidized by choline oxidase to betaine and H2O2. Lastly, H2O2, in the presence of horseradish peroxidase (HRP), reacts with Amplex Red reagent in a 1:1 stoichiometry to generate the highly fluorescent product resorufin.
The inhibition assay was performed as previously described with some modifications in order to accommodate the newly-discovered lag phase in ATX kinetics. To this end, and in order to provide adequate time to the hydrolysis of LPC by ATX, we added a 30min incubation period between ATX, inhibitors and LPC. Briefly, 2 μL of different concentrations of inhibitors diluted in DMSO (Sigma-Aldrich, St. Louis, MO, USA) were incubated with 50 µL of ATX 8 nM (human or mouse ATX from Sino Biological), and 48 µL reaction buffer (50 mM Tris-Cl pH 8.0 from Thermo Fisher Scientific, Waltham, MA, USA and 5 mM CaCl2 from Honeywell-Fluka, Charlotte, NC, USA) in a black 96-well microplate for 15 min at 37 °C. Thence, another 50 µL of reaction buffer with 200 μM LPC substrate 16:0 (Avanti Polar Lipids Inc, Alabaster, AL, USA) ([…]) was added to the reaction mixture and incubated for 30 min at 37 °C in order for ATX to convert LPC to LPA and choline. Finally, 50 µL of working solution containing 200 μM Amplex Red (Invitrogen, Carlsbad, CA, USA), 4 U/mL HRP (Sigma-Aldrich, St. Louis, MO, USA), 0.4 U/mL choline oxidase (Sigma-Aldrich, St. Louis, MO, USA) in 50 mM Tris-HCl pH 8.0 and 5 mM CaCl2 was added to measure the produced choline. The reaction was monitored at 37 °C in a fluorescence plate reader using excitation at 530 nm and reading at 590 nm, every 5 min for 30 min. The velocity of the reaction and the remaining activity of ATX were calculated at the linear phase of the reaction and dose-response inhibition graphs were plotted with GraphPad Software (GraphPad Software, San Diego, CA, USA). […] In order to evaluate a possible effect of the compounds on the second (choline oxidase) and third (HRP) enzymes of the Amplex Red assay, we also performed the assay in the absence of ATX but in the presence of the compounds. Instead of ATX, we added choline chloride at a final concentration of 2 µM so as the second and third steps of the assay could proceed normally.

ATX [2] = target: T1, ATX; assay: IC50 Eleanna (Table S2, method not described); type: biochemical; conditions: Table S2; read-out: IC50 Eleanna
[3] = recombinant human ATX 2 nM, LPC 16:0 substrate, Amplex Red, read-out: IC50 hATX
[4] = read-out: in vitro IC50 (Sino hATX 2nM), Table S2, Sino hATX 2nM
[5] = in vitro IC50 (Sino hATX 2nM), Table S2, Sino hATX 2nM

Solubility (Solubility (Table S1)) | IC50 (ATX [1]; [3]) [µM] | IC50 (ATX [2]) [µM] | IC50 (ATX [1]; [5]) [µM] | Compound | other results
YES | > 100 |  |  | O=C(c1ccc(Sc2ccccc2)c([N+](=O)[O-])c1)N(Cc1ccc2c(c1)OCO2)c1ccc(F)cc1 [DSHS00944, N-(1,,3-benzodioxol-5-ylmethyl)-N-(4-fluorophenyl)-3-nitro-4-,phenylsulfanylbenzamide] | 
YES | > 100 |  |  | O=S(=O)(Nc1cc(-c2cccs2)nn1-c1ccc(F)cc1)c1ccc(-c2cc(C(F)(F)F)on2)s1 [SP00998] | 
YES | > 100 |  |  | O=C(CSc1nc2cc(Cl)ccc2o1)Nc1cc(C(F)(F)F)cc(C(F)(F)F)c1 [HTS01561, N-[3,5-bis(trifluoromethyl)phenyl]-2-[(5-chloro-1,3-benzoxazol-2-yl)thio]acetamide] | 
YES | > 100 |  |  | O=C(C(=Cc1ccccc1)n1ccnc1)c1ccccc1OCc1ccccc1 [NRB02626, 1-[2-(benzyloxy)phenyl]-2-(1H-imidazol-1-yl)-3-phenylprop-2-en-1-0ne] | 
YES | > 100 |  |  | C(=C1c2ccccc2-c2ccccc21)C(C=C1c2ccccc2-c2ccccc21)c1ccccc1 [BTB11132, 9-[3-(9H-fluoren-9-yliden)-2-phenylpropylidene]-9H-fluorene] | 
YES | > 100 |  |  | O=C(NC(=O)c1ccc(-c2ccc(Cl)cc2)s1)Nc1cc(C(F)(F)F)cc(C(F)(F)F)c1 [MBE00201, N-[[3,5-bis(trifluoromethyl)phenyl]carbamoyl]-5-(4-chlorophenyl)thiophene-2-carboxamide] | 
YES | > 100 |  |  | O=S(=O)(Nc1cc(C(F)(F)F)ccc1N1CCc2ccccc2C1)c1cccc2nonc12 [HTS01790, N-[2-(3,4-dihydro-1H-isoquinolin-2-yl)-5-(trifluoromethyl)phenyl]-2,1,,3-benzoxadiazole-7-sulfonamide] | 
YES | > 100 |  |  | Cc1ccc(C2=CC(c3cn(-c4ccccc4)nc3-c3ccccc3)N3C(=O)CSC3=N2)cc1 (stereo not drawn) [HTS09893, 5-(1,3-diphenylpyrazol-4-yl)-7-(4-methylphenyl)-5H-[1,3]thiazolo[3,2-a]pyrimidin-3-one] | 
YES |  |  |  | CCc1nc2c(C)cc(N3CCN(CC(=O)N4CC(O)C4)CC3)cn2c1N(C)c1nc(-c2ccc(F)cc2)c(C#N)s1 [GLPG1690, 2-[[2-ethyl-6-[4-[2-(3-hydroxyazetidin-1-yl)-2-oxoethyl]piperazin-1-yl]-8-methylimidazo[1,2-a]pyridin-3-yl]-methylamino]-4-(4-fluorophenyl)-1,3-thiazole-5-carbonitrile, reference compound] | 
YES | > 100 |  |  | O=C(CN1CCN(C2c3ccccc3-c3ccccc32)CC1)c1ccc2c(c1)OCO2 [HTS10658, 1-(1,3-benzodioxol-5-yl)-2-[4-(9H-fluoren-9-yl)piperazin-1-yl]ethanone] | 
YES | > 100 |  |  | NC(=NOC(=O)c1ccc(-c2cccs2)s1)c1cccc(C(F)(F)F)c1 [SEW02612, N'-{[5-(2-thienyl)-2-thienylcarbonyl]oxy}-3-(trifluoromethyl)benzenecarboximidamide] | 

Continued, molecule first:

Compound | Solubility (Solubility (Table S1)) | IC50 (ATX [1]; [3]) [µM] | IC50 (ATX [2]) [µM] | IC50 (ATX [1]; [5]) [µM] | other results
O=C1S/C(=C\c2ccc(OCc3ccc(B(O)O)cc3)cc2)C(=O)N1Cc1ccc(F)cc1 [HA155, [4-[[4-[(Z)-[3-[(4-fluorophenyl)methyl]-2,4-dioxo-1,3-thiazolidin-5-ylidene]methyl]phenoxy]methyl]phenyl]boronic acid, reference compound] | YES |  |  |  | 
CC(=O)Oc1ccccc1C(=CC=C(c1ccccc1)c1ccccc1)N1CCOCC1 [RF01254, 2-(1-morpholino-4,4-diphenylbuta-1,3-dienyl)phenyl acetate] | YES | > 100 |  |  | 
NC(=NOC(=O)c1cncc(C#Cc2ccccc2)c1)c1cccc(C(F)(F)F)c1 [KM08386, O1-{[5-(2-phenyleth-1-ynyl)-3-pyridyl]carbonyl}-3-(trifluoromethyl)benzene-1-carbohydroximamide] | YES | > 100 |  |  | 
Cc1nn(-c2ccccc2)c2nc(OCC(=O)c3ccc(Br)cc3)c(C#N)c(-c3cccnc3)c12 [HTS09079, 6-[2-(4-bromophenyl)-2-oxoethoxy]-3-methyl-1-phenyl-4-pyridin-3-,ylpyrazolo[4,5-e]pyridine-5-carbonitrile] | YES | > 100 |  |  | 
CC12N[N+](c3ccccc3)=C(c3ccccc3)C1S(=O)(=O)c1ccccc12 (stereo not drawn) [SC-36, 8b-methyl-2,3-diphenyl-1,3a-dihydro-[1]benzothiolo[3,2-c]pyrazol-2-ium 4,4-dioxide] |  |  | > 5 |  | IC50 (ATX [1]; [4]): > 30 µM
Cc1ccc(S(=O)(=O)n2cc(C=C3C(=O)Nc4ccccc43)c3ccccc32)cc1 [SC-18, 3-[[1-(4-methylphenyl)sulfonylindol-3-yl]methylidene]-1H-indol-2-one] |  |  | 5 | 30 | inhibition at 30 µM (ATX [1]): 55.3%
CCOC(=O)c1c(C)c(-c2ccccc2)n(CC(=O)N2CCc3ccccc3C2)c1C [KM-49, ethyl 1-[2-(3,4-dihydro-1H-isoquinolin-2-yl)-2-oxoethyl]-2,4-dimethyl-5-phenylpyrrole-3-carboxylate] |  |  | 5 | > 30 | 
O=C1Cc2cc(C(=O)CSc3nc4ccccc4n3-c3ccccc3)ccc2N1 [SC-12, 5-[2-(1-phenylbenzimidazol-2-yl)sulfanylacetyl]-1,3-dihydroindol-2-one] |  |  | 0.9 | > 30 | 
Cc1ccc(C)c(NC(=O)CSc2cn(CC(=O)N3CCCC3)c3ccccc23)c1 [KM-21, N-(2,5-dimethylphenyl)-2-[1-(2-oxo-2-pyrrolidin-1-ylethyl)indol-3-yl]sulfanylacetamide] |  |  | > 5 | > 30 | 
CCOC(=O)Cc1c(CN2CCN(C)CC2)c2ccccc2n1Cc1ccccc1 [KM-30, ethyl 2-[1-benzyl-3-[(4-methylpiperazin-1-yl)methyl]indol-2-yl]acetate] |  |  | 5 | > 30 | inhibition at 30 µM (ATX [1]): 0%
COc1ccc(Cn2c(C(=O)O)c(CNC3CCCCC3)c3ccc(C)cc32)cc1 [KM-29, 3-[(cyclohexylamino)methyl]-1-[(4-methoxyphenyl)methyl]-6-methylindole-2-carboxylic acid] |  |  | 1.2 | > 30 | inhibition at 30 µM (ATX [1]): 3.21%
CCOC(=O)c1c(-c2ccccc2)oc2ccc(O)c(CN3CCCCC3C)c12 (stereo not drawn) [KM-48, 2,3-dihydroxybutanedioic acid;ethyl 5-hydroxy-4-[(2-methylpiperidin-1-yl)methyl]-2-phenyl-1-benzofuran-3-carboxylate] |  |  | > 5 |  | IC50 (ATX [1]; [4]): > 30 µM
O=S(=O)(c1ccc(F)cc1)N1C=Cc2ccccc2C1c1c[nH]c2ccccc12 (stereo not drawn) [SC-4, 2-(4-fluorophenyl)sulfonyl-1-(1H-indol-3-yl)-1H-isoquinoline] |  |  | > 5 | > 30 | 
O=C(Nc1c2c(nn1-c1ccccc1)C[S+]([O-])C2)c1cccc2ccccc12 (stereo not drawn) [SC-9, N-(5-oxo-2-phenyl-4,6-dihydrothieno[3,4-c]pyrazol-3-yl)naphthalene-1-carboxamide] |  |  | > 5 | > 30 | 
COCCCN1C(=O)c2[nH]nc(-c3ccccc3)c2C1c1ccc(C(C)C)cc1 (stereo not drawn) [KM-2, 5-(3-methoxypropyl)-3-phenyl-4-(4-propan-2-ylphenyl)-1,4-dihydropyrrolo[3,4-c]pyrazol-6-one] |  |  | > 5 | > 30 | 
COc1cc([C@H]2c3cccn3CCN2C(=S)Nc2ccccc2C)cc(OC)c1OC [KM-27, N-(o-tolyl)-1-(3,4,5-trimethoxyphenyl)-3,4-dihydro, (1S)-N-(2-methylphenyl)-1-(3,4,5-trimethoxyphenyl)-3,4-dihydro-1H-pyrrolo[1,2-a]pyrazine-2-carbothioamide] |  |  | 1 |  | IC50 (ATX [1]; [4]): > 30 µM
Cn1c(-c2ccccc2)c(C(=O)Cn2cnc3ccsc3c2=O)c2ccccc21 [SC-10, 3-[2-(1-methyl-2-phenylindol-3-yl)-2-oxoethyl]thieno[3,2-d]pyrimidin-4-one] |  |  | > 5 | > 30 | 
